Test: in vitro
Conditions: rat, microsomes
Procedure: Buffer solutions were prepared as follows: • a. Buffer A: 0.1 M monobasic potassium phosphate buffer containing 1.0 mM EDTA. • b. Buffer B: 0.1 M dibasic potassium phosphate buffer containing 1.0 mM EDTA. • c. Buffer C: 0.1 M potassium phosphate buffer containing 1.0 mM EDTA was adjusted to pH 7.4 by titrating 700 mL of Buffer B with Buffer A while monitoring with a pH meter. • 2. An NADPH stock solution (6 mM) was prepared by dissolving NADPH into Buffer C. • 3. Spiking solutions were prepared for the reference compound (ketanserin) and the test compounds as follows: • a. A 500 μM spiking solution of the reference compound (ketanserin) was generated by adding 10 μL of a 10 mM stock solution of ketanserin in DMSO into 190 μL acetonitrile. A 1.5 μM spiking solution in microsomes (0.75 mg/mL) was generated by adding 1.5 μL of the 500 μM spiking solution and 18.75 μL of 20 mg/mL rat liver microsomes into 479.75 μL of Buffer C while cooling with ice. • b. […] A 0.75 μM spiking solution in microsomes (0.75 mg/mL) was generated by adding 1.5 μL of the 250 μM spiking solution and 18.75 μL of 20 mg/mL rat liver microsomes into 479.75 μL of Buffer C while cooling with ice. • 4. 30 μL of 1.5 μM spiking solution containing 0.75 mg/mL microsomes solution was dispensed into assay plates designated for different time points (0 min, 5 min, 15 min, 30 min, and 45 min; or 0 min, 15 min, 30 min, 45 min, and 60 min as shown in Tables 1-5 below) while cooling with ice. • 5. For the 0 min time point assay plate, 135 μL of ACN containing IS followed immediately by 15 μL of the 6 mM NADPH stock solution were added to the wells of the 0 min assay plate. • 6. All assay plates other than the 0 min assay plate were pre-incubated at 37° C. for 5 min, and then 15 μL of the 6 mM NADPH stock solution was added to the wells of the assay plates to start the reaction and timing. At the appropriate time (5 min, 15 min, 30 min, 45 min, or 60 min), 135 μL of ACN containing IS was added to the wells of the corresponding assay plates, respectively, to stop the reaction. • 7. After quenching, the plates were shaken in a vibrator (IKA, MTS 2/4) for 10 min (600 rpm/min) and then centrifuged at 5594 g for 15 min (Thermo Multifuge×3R). • 8. After centrifugation, 50 μL of the supernatant from each well was transferred into a 96-well sample plate containing 50 μL of ultrapure water (Millipore, ZMQS50F01) for LC/MS analysis.

[2H]C1([2H])NC([2H])([2H])C([2H])(c2ccc(-n3cc4cccc(C(N)=O)c4n3)cc2)C([2H])([2H])C1([2H])[2H] (racemic) [Example 3, 2-(4-(piperidin-3-yl-2,2,3,4,4,5,5,6,6-d9)phenyl)-2H-indazole-7-carboxamide]
Percent Remaining (%) 0 min (0 h, 0.5 µM, pH 7.4): 100.00%
Percent Remaining (%) 15 min (0.25 h, 0.5 µM, pH 7.4): 92.77%
Percent Remaining (%) 30 min (0.5 h, 0.5 µM, pH 7.4): 82.19%
Percent Remaining (%) 45 min (0.75 h, 0.5 µM, pH 7.4): 74.60%
Percent Remaining (%) 60 min (1 h, 0.5 µM, pH 7.4): 69.31%
CLint scaled at 0.5 µM (pH 7.4, Clint): 22.7 mL/min/kg
half-life at 0.5 µM (pH 7.4, T1/2): 1.82 h
